In general, MIC refers to the smallest concentration in the dilution series that meets the test's criterion for growth inhibition. For orientation: IC50 means the concentration at which inhibition is half-maximal.

In brackets after ≈: the same amount, converted by molar mass.

These results are taken from patent publication EP2875816A1, “N-(3-hydroxy-5,7-dimethyladamantan-1-yl)-2-(3-oxobenzo[d]isothiazol-2(3h)-yl)acetamide as a novel inhibitor for staphylococcus aureus sortase a” (Latvian Biomedical Research and Study Centre, priority 2013, dated 2015).

For test [1], the system named is S. epidermidis. The test can be described thus: Minimum inhibitory concentration (MIC), broth dilution micromethod. It is filed as cell-based. Particulars: Staphylococcus epidermidis; 24 hours at 37 °C, complete inhibition of cell growth, OD 600 nm. As to the method:
(§1) The MIC values of test compounds that inhibited cell growth of Gram-positive Staphylococcus aureus and S. epidermidis were determined by broth dilution micromethod. A series of solutions with a range from 0.1 µg/ml to 400 µg/ml were made in using a logarithmical phase culture with OD600 = 0.1 (corresponds to ~1.2 x 10^8 CFU/ml in 96-well plate standard. The plate was incubated at 37 °C for 24 hours and growth was assayed with a microplate reader by monitoring the absorption at 600 nm. All experiments were done in triplicate, and repeated three times.
(In general: Dilution methods test growth across graded concentrations, often in twofold steps.)

For test [2], the system named is Staphylococcus aureus. The description is as above. Type of test: cell-based. Particulars: 24 hours at 37 °C, complete inhibition of cell growth, OD 600 nm, read-out: MIC, S.aureus. As to the method: as §1
Test [3] deals with T1, S. aureus sortase A (SrtAΔN59, residues 60-206) (Staphylococcus aureus, UniProt Q2FV99).
T1 construct: expressed with an N-terminal deletion of 59 amino acid residues (SrtAΔN59, residues 60-206); made in house
Kind of test: SrtA enzyme FRET inhibition assay (dose-response, recombinant sortase A with FRET peptide substrate containing the LPETG motif). Type of test: biochemical. The text has this:
The catalytically active recombinant sortase A enzyme used for these studies was expressed with an N-terminal deletion of 59 amino acid residues (SrtAΔN59, residues 60-206). The first step included high-throughput screening of potent S. aereus SrtA inhibitors and selection of new antibacterial substances as sortase A inhibitors. In order to identify potent inhibitors of S. aureus sortase A, a high-throughput screening (HTS) of a diverse library of 50,000 drug-like low-molecular weight molecules was performed, which led to the identification of novel promising drug candidates.
These assays included determination of 50% SrtA inhibition concentration (IC50) of the newly synthesized derivative in dose-response experiments using the recombinant sortase
A enzyme incubated with FRET peptide substrate containing the LPETG motif, minimal inhibitory concentration (MIC) test with two staphylococcal species to measure the antimicrobial efficacy of the new inhibitory molecule, and toxicity test using a normal mouse embryonic fibroblasts cell line NIH/3T3 to determine the cell growth IC50 inhibitory concentration.
Values are means ±SD (n = 5).

Test [4] concerns NIH/3T3 mouse fibroblast cell line. The test can be described thus: Cytotoxicity / cell growth inhibition, MTT test. It is filed as cell-based. Particulars: NIH3T3, 48 hours exposure, mean of three independent experiments ±SD. As to the method: The growth inhibitory effect of the newly synthesized compound was studied on NIH/3T3mouse fibroblast cell line. NIH/3T3 cells were seeded into 96-well microplates with initial density of 1x10^4 cells per well in DMEM culture medium with 10% FCS. After 24 hours of incubation, cells were exposed to a graded series of concentrations of chemical compounds for additional 48 hours. The cell medium was removed and 100 µl of fresh culture medium without phenol red and 1 mM MTT solution was added to each well. After 3 hours of incubation, an equal volume of 1% SDS-HCl solution was added and plates were incubated for additional 4 hours. Absorbance was measured at 570 nm and the data were fitted to a four parameter variable slope equation to determine the IC50 value.
The cytotoxic response is dependent on the cell line tested and NIH/3T3 mouse fibroblasts are a well-characterized cellular model used to study toxicity and drug delivery processes. In the table 3 data are given as the mean of three independent experiments ±SD.

Test [5] deals with T2, SrtA (Staphylococcus aureus, UniProt Q2FV99).
T2 construct: expressed with an N-terminal deletion of 59 amino acid residues (SrtAΔN59, residues 60-206); made in house
Kind of test: Binding to SrtA monitored by 2D [15N,1H]-HSQC NMR spectroscopy, with dialysis. Particulars: 2D 15N-1H HSQC spectrum unchanged after dialysis against NMR buffer. The text has this:
• Fig. 1 - represents the binding of a selected inhibitor N-(adamantan-1-yl)-2-(3-oxo-2,3-dihydro-1,2-benzothiazol-2-yl)acetamide to SrtA monitored by 2D [^15N,^1H]-HSQC NMR spectroscopy. (a) Spectrum of SrtA in absence of inhibitor. […] (a) SrtA active site after modification by inhibitor. The inhibitor (in cyan) and near-by side chains of SrtA are shown with sticks and labeled. Side chains are colored according to their type: hydrophobic in yellow, negatively charged in red, positively charged in blue and hydrophilic in grey. Hydrogens are omitted for clarity. […] (c) Molecular surface representation of SrtA in complex with inhibitor. It can be seen in the figure that the inhibitor occupies almost all volume of the substrate pocket, the majority of interactions are hydrophobic and hydrogen bond is at the R139.
Determination of the complex structure of selected inhibitor and sortase enzyme was performed by using the nuclear magnetic resonance (NMR) spectroscopy methods. The collected NMR data allowed to specify the structure of inhibitory complexes.
To verify that the selected inhibitor can react with a cysteine thiol (such as the SrtA active site C 184) we performed a reaction with cysteine in the NMR tube and observed the formation of a covalent adduct (Figure 2). The chemical structure of the product was verified using proton 1D and 2D NMR methods.

Turning to `CC12CC3(C)CC(O)(C1)CC(NC(=O)Cn1sc4ccccc4c1=O)(C2)C3` [N-(3-hydroxy-5,7-dimethyladamantan-1-yl)-2-(3-oxobenzo[d]isothiazol-2(3H)-yl)acetamide], the MIC in test [1] and in test [2] was 8 µg/mL (≈ 20.7 µM) in each case. Besides, the IC50 worked out at 3.9 µM in test [3] and 8.1 µg/mL (≈ 21 µM) in test [4].

In the case of `O=C(Cn1sc2ccccc2c1=O)NC12CC3CC(CC(C3)C1)C2` [N-(adamantan-1-yl)-2-(3-oxo-2,3-dihydro-1,2-benzothiazol-2-yl)acetamide], the “Mode of binding to the active site of SrtA” value in test [5] is given as “irreversible binding”. The MIC stood at 0.5 µg/mL (≈ 1.46 µM) in test [1] and 1 µg/mL (≈ 2.92 µM) in test [2]. In addition, the IC50 in test [4] stood at 1.3 µg/mL (≈ 3.8 µM).
